# Results: patent US20080025962A1, “Remedy for Alzheimer's Disease” (AnGesMG,Inc., priority 2005, published 2008)
# Entries after “also recorded” stand apart in the source; their conditions may differ.
# What was measured:
# [1] = system: Human brain microvascular endothelial cells (arterial); assay: Cell growth (cell count) of artery endothelial cells after Aβ stimulation; assay type: cell-based; settings: for Cell count (relative to control as 100): Artery endothelial cells
# Protocol: (§1) Human brain microvascular endothelial cells (HBMEC), human umbilical artery endothelial cells (HUAEC), human umbilical vein endothelial cells (HUVEC) and human aortic smooth muscle cells (HSMC) were obtained from Applied Cell Biology Research Institute. The cells were cultured using a modified MCDB131 medium supplemented with 2% or 10% FBS; those subcultured over 3 to 6 passages were used in the experiments described below.
# (§2) Human brain microvascular endothelial cells (arterial and venous) cultured in a 12-well plate by the above-described method were stimulated with Aβ1-40 (0.05 μM, 0.5 μM and 5 μM), Aβ1-42 (0.5 μM), Aβ40-1 (0.5 μM), and control (no Aβ derivative added) for 72 hours. Aβ40-1 has the sequence reverse to that of Aβ1-40. This was used as the control peptide. Next, the number of cells was counted manually using a hemocytometer.
# [2] = system: Akt; assay: Western blot assay, Akt phosphorylation; assay type: cell-based, human; settings: VEGF 10 ng/mL, Aβ1-40 0.5 μM, up to 40 minutes
# Protocol: (§3) After the EC reached an 80% confluence, the medium was exchanged with an FBS-free fresh medium, and the EC was allowed to stand for 4 hours. Next, the cells were stimulated with human VEGF (10 ng/mL) and Aβ1-40 (0.5 μM) for up to 40 minutes. Total cell protein extract from human endothelial cells was separated on 12.5% SDS-polyacrylamide gel, and transferred to a nitrocellulose membrane. The membrane was subjected to Western blotting using antibodies against human Akt, phosphorylated Akt and phosphorylated ERK (Cell Signaling).
# [3] = system: endothelial cells; assay: Endothelial cell migration, Boyden chamber assay; assay type: cell-based, human; settings: VEGF 10 ng/ml; for Effect on endothelial migration: Boyden chamber
# Protocol: as §1
# Next, endothelial cell migration was examined using Boyden chamber assay. Briefly, an EBM-2 medium comprising VEGF (10 ng/ml), Aβ1-40 (0.5 μM and 5 μM)+VEGF (10 ng/ml), Aβ40-1 (0.5 μM)+VEGF (10 ng/ml), 10% FBS or control (no Aβ derivative added) was placed in the lower section of a chamber. 5×10^4 endothelial cells (in 50 μL of EBM-2 supplemented with 0.5% bovine serum albumin) were seeded into the upper section of the chamber. Cell migration was measured by counting the cells in four highly magnified fields of vision (×40). Three experiments were performed for each group. (mean ±standard deviation: P<0.05)
# The unit of measurement is in cell count/field of vision.
# [4] = system: c57/BL6J mice; assay: Matrigel plug transplant assay; assay type: in vivo, mouse
# Protocol: Age-matched male c57/BL6J mice at 8 weeks of age were given 500 μL of Matrigel comprising 50 ng/mL VEGF and Aβ1-40 (5 μM), and 37 units of heparin by subcutaneous injection. Seven days later, the Matrigel plug was carefully recovered from each mouse, washed with phosphate-buffered saline (PBS) three times, and stored under freezing at −20° C. A section ([…]) of the frozen plug was fixed in ice-cooled acetone, and then stained with rat anti-mouse CD31 primary antibody (Pharmingen), FITC-conjugated anti-α smooth muscle actin antibody (Sigma) and Alexa-conjugated goat anti-rat secondary antibody (Molecular Probe).
# Blood vessel density in the stained section was evaluated by fluorescence intensity using the NIH image software. The hemoglobin content in each plug was measured as an index of adult vascular regeneration.
# [5] = system: Human brain microvascular endothelial cells (venous); assay: Cell growth (cell count) of venous endothelial cells after Aβ stimulation; assay type: cell-based; settings: 72 hours
# Protocol: as §1, §2
# [6] = system: Human SMC; assay: ELISA assay of VEGF level in SMC culture; assay type: cell-based; settings: 48 hours after stimulation
# Protocol: as §1
# Human SMC was cultured in a 12-well culture plate of an MCDB medium comprising 10% FBS. 48 hours after Aβ1-40 stimulation, the VEGF level in each well was tested by enzyme immunoassay (R&D System).
# [7] = system: human umbilical vein endothelial cells; assay: EC vessel formation on Matrigel, vein endothelial cells; assay type: cell-based; settings: 72 hours stimulation, 18 hours on Matrigel
# Protocol: as §1
# (§4) Human umbilical artery endothelial cells and human umbilical vein endothelial cells were stimulated with Aβ1-40 (0.5 μM and 5 μM), Aβ40-1 (0.5 μM), and control (no Aβ derivative added) for 72 hours; after reaching an 80% confluence, endothelial cells were then washed with PBS, trypsinated, and cultured on a 6-well culture plate coated with Matrigel basal membrane matrix (Becton Dickinson Labware) for 18 hours. The cells on the Matrigel were photographed, and the full-length was measured using an NIH image analyzer.
# (§5) The unit of measurement is in pixel.
# [8] = system: Human umbilical artery endothelial cells; assay: EC vessel formation on Matrigel, artery endothelial cells; assay type: cell-based; settings: for Full-length of cells on Matrigel, Mean value: Artery endothelial cells, 72 hours stimulation, 18 hours on Matrigel
# Protocol: as §1, §4, §5
# [9] = system: ERK; assay: Western blot assay, ERK phosphorylation; assay type: cell-based, human; settings: VEGF 10 ng/mL, Aβ1-40 0.5 μM, up to 40 minutes
# Protocol: as §3
# [10] = system: low-density monocytes from the spleen of a C57BL/6J mouse; assay: Adult vascular stem cell differentiation assay; assay type: cell-based; settings: Dil-acetylated LDL and BS-1 double staining; 4 days of cultivation
# Protocol: Briefly, low-density monocytes were isolated from the spleen of a C57BL/6J mouse by a density centrifugation method using Histopaque-1083 (Sigma, St. Louis, Mo.). The cells were seeded onto a 4-well glass slide (Nunc International) coated with rat vitronectin (Sigma), and cultured in a medium comprising 2% heat inactivated defined FBS. The medium was supplemented with the endothelial growth supplementation kit, EGM-2MV single aliquot (Clonetics).
# After 4 days of cultivation, the cells were incubated with the addition of acetylated LDL (Biomedical Technologies, Stoughton, Mass.), and stained with FITC-conjugated Griffonia simplicifolia lectin I (BS1-lectin) (Vector Laboratories). In 15 fields of vision at 40× magnification, the number of cells double stained with acLDL-Dil and BS1 was counted for each sample as endothelial precursors.
# [11] = Matrigel plug with 50 ng/mL VEGF and Aβ1-40 (5 μM), subcutaneous, seven days
substance,measurement,setting,value
Aβ1-42: β-amyloid species longer than Aβ1-40 by two residues on the C-terminal side,Toxic effect on endothelial cells (necrotized cells observed),"[1]; 0.5 μM, 72 hours, FIG. 2",toxic effect on endothelial cells
vascular endothelial growth factor [VEGF],Intracellular Akt phosphorylation,[2],stimulated
same,Effect on endothelial migration,[3],endothelial migration was caused by vasculogenesis by VEGF
same,"Cell migration, Mean value","[3]; substance in lower section of chamber, Aβ1-40 0.5 μM and 5 μM, Aβ40-1 0.5 μM",100.018 cell count/field of vision
β-amyloid 1-40 [Aβ1-40],"Blood vessel density, Mean value",[4]; [11],825.800 pixel
same,"Hemoglobin content, Mean value",[4]; [11],0.084 OD 450/tissue mg
same,Effect on adult vascular regeneration in vivo,"[4]; Matrigel plug, mice",suppressive effect on adult vascular regeneration in vivo
same,Intracellular Akt phosphorylation,[2],inhibited
same,Cell count (relative to control as 100),[5]; 0.05 μm,80 ± 18.987
same,Cell count (relative to control as 100),[5]; 0.5 μm,73 ± 11.392
same,Cell count (relative to control as 100),[5]; 5 μm,70 ± 5.968
same,Effect on VEGF secretion from VSMC,[6],no direct effect on VEGF secretion from VSMC
same,"VEGF level, Mean value","[6]; DSF, enzyme immunoassay",0.080
same,Effect on endothelial migration,[3],the effect was inhibited
same,"Full-length of cells on Matrigel, Mean value",[7]; 0.5 μm,10599.000 pixel
same,"Full-length of cells on Matrigel, Mean value",[7]; 5 μm,9884.333 pixel
same,"Full-length of cells on Matrigel, Mean value",[8]; 0.5 μm,8719.333 pixel
same,"Full-length of cells on Matrigel, Mean value",[8]; 5 μm,7951.167 pixel
same,Effect on EC vessel formation on Matrigel,[8]; text statement for Tables 2 and 3,suppressed EC vessel formation on Matrigel
same,Cell count (relative to control as 100),"[1]; 0.05 μm, 72 hours",78 ± 9.481
same,Cell count (relative to control as 100),"[1]; 0.5 μm, 72 hours",75 ± 8.011
same,Cell count (relative to control as 100),"[1]; 5 μm, 72 hours",73 ± 11.699
same,Effect on growth of human brain microvascular endothelial cells,"[1]; text statement for arterial and venous cells, more conspicuous in arteries",suppressed the growth of human brain microvascular endothelial cells
same,ERK phosphorylation caused by VEGF,[9],no effect on the ERK phosphorylation caused by VEGF
same,Effect on growth and differentiation of vascular stem/precursor cells,[10],inhibitory effect on the differentiation of vascular stem cells; also recorded: suppressed the growth and differentiation of the cultured vascular precursor cells
